Laboratory results: patent US20200079750A1, “COMPOUND OR SALT THEREOF, ANTIVIRAL AGENT, AND PHARMACEUTICAL COMPOSITION” (priority 2017, published 2020)

Legend:
[1] = system: Towne strain of human cytomegalovirus (HCMV); assay: Evaluation of antiviral activity: viral load of HCMV-infected HEL cells by the plaque method; assay type: cell-based; conditions: for EC50: Human betaherpesvirus 5, HEL, 144 h, read-out: EC50 value (anti-HCMV effect)
Procedure: Diploid fibroblasts derived from human embryonic lung (Human embryonic lung fibroblasts; HEL cells) cultured in a 9.6 cm^2 petri dish until they became confluent using Dulbecco's Modified Eagle Medium (DMEM) to which 8% fetal calf serum (FCS) was added were prepared. The HEL cells were adsorbed and infected with a Towne strain of human cytomegalovirus (HCMV) with a multiplicity of infection (MOI) of 1, and cultured at 37° C. for 1 hour to obtain HCMV-infected cells.
The compound of the present invention or tricin which were serially diluted with dimethyl sulfoxide (compound concentration: 0.001, 0.01, 0.1, 1 and 10 μM) was added to the above HCMV-infected cells and cultured for 6 days. The number of infectious HCMV particles produced in the culture supernatant (viral load) was determined by the plaque method.
The plaque method was performed in the following manner. After the HEL cells cultured in a 24-well plate until they became confluent were adsorbed and infected with the culture supernatant which was 10-fold serially diluted at 37° C. for 1 hour, the 2% FCS and 0.4% agar-containing DMEM media were overlaid and then cultured. Several days (6 to 12 days) after the initiation of culture, the number of plaques appeared was counted under a microscope, and the viral load was measured.
A lower value of the relative value (the viral load against control) means a higher antiviral activity.
Using the compound obtained as mentioned above (the compound of the present invention), tricin and ganciclovir, the antiviral activity of each compound was evaluated in the same manner as in the above <Evaluation of Antiviral Activity—1>.

HEL cells = assay: Evaluation of cytotoxicity to HEL cells by LDH release assay; assay type: cell-based, human; conditions: 37° C. for 5 days, concentrations of at least up to 10 μM, FIG. 3
Procedure: Using the compound obtained as mentioned above (the compound of the present invention), tricin and flavopiridol, the cytotoxicity to the HEL cells was evaluated in accordance with the following procedure. Flavopiridol is a control compound in this Test Example, which is known to have toxicity although it functions as an antiviral agent.
The HEL cells were cultured at 37° C. for 5 days in the presence or absence of the above each compound. The proportion of viable cells after culture was calculated by the LDH release assay. The kit (trade name “Cyto Tox 96 (registered trademark) assay”, manufactured by Promega Corporation) was used for the assay. The test was repeated three times, and data were represented as mean±SD.

## COc1cc(-c2cc(=O)c3c(O)cc(O)cc3o2)cc(OC)c1O [tricin, 4′,5,7-trihydroxy-3′,5′-dimethoxyflavone, reference compound]
[1]
  EC50: 54.3 nM

## COc1cc(-c2cc(=O)c3ccc(F)cc3o2)cc(OC)c1O [the compound of the present invention, 7-fluoro-4′-hydroxy-3′,5′-dimethoxyflavone]
[1]; FIG. 1, compared with tricin, clearly observed at 0.001 to 1.000 μM
  antiviral activity (viral load against control): remarkably higher antiviral activity than tricin
[1]; FIG. 2, compared with tricin and ganciclovir, clearly observed at 0.1 to 1,000 nM
  antiviral activity (viral load against control): remarkably higher antiviral activity than tricin and ganciclovir
[1]
  EC50: 0.13 nM
[1]; from EC50 values, versus ganciclovir
  anti-HCMV effect higher than that of ganciclovir: about 200 fold
[1]; from EC50 values, versus tricin
  anti-HCMV effect higher than that of tricin: about 400 fold
HEL cells
  cytotoxicity (proportion of viable cells): no cytotoxicity

## Nc1nc(O)c2ncn(COC(CO)CO)c2n1 [ganciclovir, reference compound]
[1]
  EC50: 27.5 nM
